This is an account of results in US20250352477A1, “FORMULATIONS AND ORAL DOSAGE FORMS OF LIPOPHILIC AGENTS” (CANNBIOREX PHARMA LTD, priority 2022, published 2025).

What is called half-life is the time in which the quantity being followed falls by half. In general, AUC refers to concentration integrated over time. The low end stands for less exposure, the high end for more exposure.

Like-named read-outs stand apart in the source and are kept apart here.

A short description of this series: Pharmacokinetic study of LPNF-CBD formulations in freely moving rat model. The settings on record: CBD 15 mg/kg; for half-life: read-out: Elimination half-life (converted). Type of series: in vivo. The method, then: For pharmacokinetic analysis of LPNF-CBD powders, male Wistar rats were tested in […] groups: a control group received LPNF-CBD prepared as in EXAMPLE 2 (N=5) with CBD concentration 2 mg/mL, administered by oral gavage; experimental groups received LPNF-CBD Polypore or Neusilin US2 powders dispersed in water (N=4 and N=5, respectively) with LPNF-CBD concentration of 20 mg/ml, administered by oral gavage; control groups received CBD in propylene glycol:ethanol:water (4.5:4.5:1 v/v) with CBD concentration of 3 mg/mL, administered by oral gavage or intravenously (N=5 and N=3, respectively). In all groups, the administered CBD dose was 15 mg/kg. For pharmacokinetic (PK) studies, blood samples (0.35 mL) were taken at 0, 0.3 h, 0.6 h, 1 h, 1.5 h, 2 h, 3 h, 4 h and 6 h time points. Plasma was separated by centrifugation and stored frozen until LCMS analysis.
PK study was conducted in the freely moving rat model (in-vivo) in five groups of animals receiving: (1) CBD in propylene glycol:ethanol:water solution; (2) LPNF-CBD, (3) LPNF-CBD Polypore and (4) LPNF-CBD Neusilin powders dispersed in water; all administered by oral gavage; and (5) CBD in propylene glycol:ethanol:water solution administered IV.

[1] abbreviates: male, Wistar, in vivo, oral gavage.

Regarding `C=C(C)[C@@H]1CCC(C)=C[C@H]1c1c(O)cc(CCCCC)cc1O` [CBD, Cannabidiol], the Liner terminal slope stood at 0.2 h⁻¹ (IV) and 0.2 h⁻¹ (oral gavage). In addition, the half-life is 4.1 h (male, Wistar, in vivo, IV) and 3.2 h under setting [1]. Under setting [1], this compound had an area under the curve (AUC) of 158 ng·h/mL.
